ChEMBL document CHEMBL1201862, “PubChem BioAssay data set” (2004)
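Five concentrations, 48 hours, 96-well plates. The concentration for 50% growth inhibition is given as GI50.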 The source made the active and inactive calls. Rule as the data show it: active = GI50 up to about 1.1 µM and inactive = higher.

Assays:
Test in all cases: inhibition of tumour cell growth, NCI panel, 48 h
[1] = test system: SW-620
[2] = test system: U-251
[3] = test system: A549
[4] = test system: RXF 393
[5] = test system: OVCAR-8
[6] = test system: IGROV-1
[7] = test system: HOP-92
[8] = test system: TK-10
[9] = test system: KM12
[10] = test system: UO-31
[11] = test system: HOP-62
[12] = test system: OVCAR-5
[13] = test system: SK-OV-3
[14] = test system: NCI-H460
[15] = test system: UACC-257
[16] = test system: COLO 205
[17] = test system: K562
[18] = test system: HCT-116
[19] = test system: T47D
[20] = test system: NCI/ADR-RES

Measured: GI50

CC(=O)N1CCN(C=S)CC1
inactive: [1] > 100 µM | [2] > 100 µM | [3] > 100 µM | [4] > 100 µM | [5] > 100 µM | [6] > 100 µM | [7] > 100 µM | [8] > 100 µM | [9] > 100 µM | [10] > 100 µM | [11] > 100 µM | [12] > 100 µM | [13] > 100 µM | [14] > 100 µM | [15] > 100 µM | [16] > 100 µM | [17] > 100 µM | [18] > 100 µM

CC(=O)NNc1nc(C)c(C(=O)NNC(=O)C(=O)Nc2c(C)cccc2C)s1
inactive: [1] 42.9 µM | [2] 43.9 µM | [3] 42.4 µM | [4] 32.2 µM | [5] 26.2 µM | [6] 46.1 µM | [7] 40.4 µM | [8] 77.1 µM | [9] 35.1 µM | [10] 53.8 µM | [11] > 100 µM | [12] 81.3 µM | [13] > 100 µM | [14] 33 µM | [15] 36.1 µM | [16] 31.8 µM | [17] 34 µM | [18] 40.9 µM

O=C1[C@@H]2C3C=CC([C@H]4C(=O)N(CO)C(=O)[C@@H]34)[C@@H]2C(=O)N1CO
inactive: [1] 26.1 µM | [2] > 56.2 µM | [3] > 64 µM | [4] > 55.1 µM | [5] 35.6 µM | [6] > 100 µM | [7] > 78.2 µM | [8] > 100 µM | [9] > 64.7 µM | [10] > 65.3 µM | [11] > 100 µM | [12] > 100 µM | [13] > 100 µM | [14] 30.2 µM | [15] > 100 µM | [16] > 49.9 µM | [17] 61.2 µM | [18] 34.9 µM

COc1ccc(/C=C/c2cc(OC)c(OC)c(OC)c2)cc1OC
inactive: [1] > 100 µM | [2] > 100 µM | [3] > 100 µM | [4] > 63 µM | [5] > 100 µM | [6] > 100 µM | [7] 80.5 µM | [8] > 100 µM | [9] > 100 µM | [10] > 92.7 µM | [11] 44 µM | [12] > 100 µM | [13] > 100 µM | [14] > 100 µM | [15] > 100 µM | [16] > 100 µM | [17] > 100 µM | [18] > 100 µM

CCOC(=O)c1ccc(C)c(/N=N/N(C)C)c1
inactive: [1] > 100 µM | [2] > 100 µM | [3] > 100 µM | [4] > 100 µM | [5] > 100 µM | [6] > 100 µM | [7] > 100 µM | [8] > 100 µM | [9] > 100 µM | [10] 79.8 µM | [11] > 100 µM | [12] > 100 µM | [13] > 100 µM | [14] > 100 µM | [15] > 100 µM | [16] > 100 µM | [17] > 100 µM | [18] > 100 µM

Cn1nc2ccc3nccc(N4CCN(CCO)CC4)c3c2n1
inactive: [1] 59.4 µM | [2] > 100 µM | [3] > 100 µM | [4] > 100 µM | [5] > 100 µM | [6] > 100 µM | [8] > 100 µM | [9] > 100 µM | [10] > 100 µM | [11] > 100 µM | [12] > 100 µM | [13] > 100 µM | [14] > 100 µM | [15] > 100 µM | [16] > 100 µM | [19] 42.3 µM | [17] 58.6 µM | [18] > 100 µM

CCOC1=C2N=C(C(CC)c3ccc(F)cc3)N=C2C(=O)c2ccccc21 (stereo not drawn)
inactive: [1] 36.4 µM | [2] 21.7 µM | [3] 22.1 µM | [4] 11.6 µM | [5] 30.5 µM | [6] 23.5 µM | [7] 17.7 µM | [8] 22 µM | [9] 21.9 µM | [10] 13.2 µM | [11] 46.3 µM | [12] 26.6 µM | [13] 32.1 µM | [14] 26.5 µM | [15] 20.2 µM | [16] 22.3 µM | [17] 20.6 µM | [18] 23.9 µM

COC(=O)CC(=O)OC
inactive: [1] > 100 µM | [2] > 100 µM | [3] > 100 µM | [4] > 100 µM | [5] > 100 µM | [6] > 100 µM | [7] > 100 µM | [8] > 100 µM | [9] > 100 µM | [10] > 100 µM | [11] > 100 µM | [12] > 100 µM | [13] > 100 µM | [14] > 100 µM | [15] > 100 µM | [16] > 100 µM | [17] > 100 µM | [18] > 100 µM

O=C1CSC(=S)N1c1ccco1
inactive: [1] 41.1 µM | [2] > 100 µM | [3] > 100 µM | [4] > 100 µM | [5] 56.5 µM | [6] > 100 µM | [7] > 100 µM | [8] > 100 µM | [9] 21.9 µM | [11] > 100 µM | [12] > 100 µM | [13] > 100 µM | [14] > 100 µM | [15] > 100 µM | [16] 79.4 µM | [17] > 100 µM | [18] 60.4 µM | [20] 37.9 µM

CN(C(=O)C12C3C4C5C3C1(C(=O)C13C6C7C8C6C1C8C73)C5C42)C(C)(C)C (stereo not drawn)
inactive: [1] > 20.9 µM | [2] > 50 µM | [3] > 30.1 µM | [4] > 50 µM | [5] > 50 µM | [6] > 50 µM | [7] > 50 µM | [8] > 50 µM | [9] > 50 µM | [10] > 50 µM | [11] > 50 µM | [12] > 50 µM | [13] > 50 µM | [14] > 32.7 µM | [15] > 50 µM | [16] > 29.8 µM | [17] > 25.6 µM | [18] 9.55 µM

Cc1ccc(C2COc3cc(O)c(O)cc3C2)cc1 (stereo not drawn)
inactive: [1] 11.1 µM | [2] 17.7 µM | [3] 43.6 µM | [4] 11.3 µM | [5] 15 µM | [6] 14.6 µM | [7] 14.4 µM | [9] 22.4 µM | [10] 30 µM | [11] 97.9 µM | [12] 94 µM | [13] 139 µM | [14] 55.3 µM | [15] 21.3 µM | [16] 12.5 µM | [17] 7.28 µM | [18] 12.4 µM | [20] 15.7 µM

CCCN(CCC)C(=O)c1c([N+](=O)[O-])cc(C(F)(F)F)cc1[N+](=O)[O-]
inactive: [1] 27.7 µM | [2] 64.9 µM | [3] 32.5 µM | [4] 26.2 µM | [5] 39.1 µM | [6] 58.2 µM | [7] 34.5 µM | [8] > 100 µM | [9] 46.1 µM | [10] > 100 µM | [11] > 100 µM | [12] 65.5 µM | [13] > 100 µM | [14] 37 µM | [15] > 10 µM | [16] 15.4 µM | [17] 28.3 µM | [18] 30.5 µM

Clc1ccc(SCCCCCCCCCCSc2ccc(Cl)cc2)cc1
inactive: [1] 37.5 µM | [2] > 57.4 µM | [3] > 73.8 µM | [4] > 100 µM | [5] > 61 µM | [6] > 100 µM | [7] > 100 µM | [8] > 61.9 µM | [9] > 55.1 µM | [10] > 100 µM | [11] > 76.2 µM | [12] > 61 µM | [13] > 100 µM | [14] > 59.7 µM | [15] > 57 µM | [16] > 100 µM | [17] > 91.2 µM | [18] > 100 µM

C[C@H]1C(=O)CC[C@]2(C)CCC(C(C)(C)O)CC12O (stereo partly drawn)
inactive: [1] > 100 µM | [2] > 100 µM | [3] > 100 µM | [4] > 100 µM | [5] > 100 µM | [6] > 100 µM | [7] > 100 µM | [8] > 100 µM | [9] > 100 µM | [10] > 100 µM | [11] > 100 µM | [12] > 100 µM | [13] > 100 µM | [14] > 100 µM | [15] > 100 µM | [16] > 100 µM | [17] > 100 µM | [18] > 100 µM

NC1=NC(=O)[C@H](Cc2c[nH]c3ccccc23)N1C(=O)OCc1ccccc1
inactive: [1] > 100 µM | [2] 69.7 µM | [4] 45.2 µM | [5] 46 µM | [6] 77.6 µM | [8] > 100 µM | [9] > 100 µM | [10] 38.1 µM | [11] > 100 µM | [12] > 100 µM | [14] 93.8 µM | [15] 49.3 µM | [16] > 100 µM | [17] 30.8 µM | [18] 57.9 µM | [20] > 100 µM
